Assay [1] has as its system gastric cancer cell line AGS. Description: Cancer cell proliferation inhibitory activity evaluation 2 (CCK-8), AGS. Type of assay: cell-based. Conditions: Homo sapiens, read-out: Cancer cell proliferation inhibitory activity AGS.
For a further assay, the target named is LRRK2 mutant (G2019S) (Homo sapiens (Human), UniProt Q5S007, G2019S). Description: Evaluation of inhibitory activity against LRRK2 (affinity bead competition binding), G2019S mutant. Conditions: read-out: Residual active values (%) LRRK2(G2019S); for remaining binding at 0.1 µM: 100 nM; for remaining binding at 0.5 µM: 500 nM. Summed up:
(§1)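 Competition binding against immobilized biotinylated ligand for DNA-tagged wild-type or G2019S LRRK2, produced from T7 phage-infected E. coli (MOI 0.4, 32° C.) lysate then HEK293 cells. Beads blocked and washed in SeaBlock buffer (1% BSA, 0.05% Tween 20, 1 mM DTT); compounds prepared as 40× stocks in 100% DMSO.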

Assay [2] has as its system acute myeloid leukemia cell line U937. Description: Cancer cell proliferation inhibitory activity evaluation 2 (CCK-8), U937. Type of assay: cell-based. As to conditions: Homo sapiens, read-out: Cancer cell proliferation inhibitory activity U937.
The target in a further assay is MLK3 (Homo sapiens (Human), UniProt Q16584). Description: Evaluation of inhibitory activity of enzyme units, MLK3 ([γ-33P]-ATP filter assay). Conditions: read-out: IC50(nM) MLK3.
The target of another assay is LRRK2 wild-type (Homo sapiens (Human), UniProt Q5S007). Description: Evaluation of inhibitory activity against LRRK2 (affinity bead competition binding), wild-type. As to conditions: read-out: Residual active values (%) LRRK2; for remaining binding at 0.1 µM: 100 nM; for remaining binding at 0.5 µM: 500 nM. Summed up:
as §1

For a further assay, the system named is TGF-β1. Description: Fibrosis inhibition evaluation 2, palmitic acid-induced HepG2, real-time PCR, TGF-β1. On the technique in general: Quantitative PCR measures a nucleic acid by following its amplification.
The next assay relates to Fibronectin-1. Kind of assay: Fibrosis inhibition evaluation 2, palmitic acid-induced HepG2, real-time PCR, Fibronectin-1.
Assay [3] deals with acute lymphoblastic leukemia cell line Jurkat. Description: Cancer cell proliferation inhibitory activity evaluation 2 (CCK-8), Jurkat. The class given is cell-based. As to conditions: Homo sapiens.
The test system of another assay is α-SMA. Kind of assay: Fibrosis inhibition evaluation 2, palmitic acid-induced HepG2, real-time PCR, α-SMA. As to conditions: palmitic acid-induced HepG2 (Table 8).
The test system of assay [4] is gastric cancer cell line Hs746T. Description: Cancer cell proliferation inhibitory activity evaluation 2 (CCK-8), Hs746T. Type of assay: cell-based. Conditions: Homo sapiens.
For assay [5], the system named is human lung cancer cell line A549. Description: Cancer cell proliferation inhibitory activity evaluation 2 (CCK-8), A549. The class given is cell-based.
The target in another assay is MLK1 (Homo sapiens (Human), UniProt P80192). Description: Evaluation of inhibitory activity of enzyme units, MLK1 ([γ-33P]-ATP filter assay). The class given is biochemical.
Setting [6] is: 72 h, read-out: Cancer cell proliferation inhibitory activity Jurkat.
The mark [7] stands for this setting: 10 μM, 72 hours, CCK-8, read-out: Cancer cell proliferation inhibitory activity Hs746T.
Setting [8] is: A549, 10 μM, 72 hours, CCK-8, read-out: Cancer cell proliferation inhibitory activity A549.
Where [9] appears, read: U-937, 10 μM, 72 hours, CCK-8 (Table 3).
The mark [10] stands for this setting: 10 μM, 72 hours, CCK-8, read-out: Cancer cell proliferation inhibitory activity Jurkat.

Read-outs that look alike come from different tables or passages of the source. Bounds are passed on as bounds.

Chain of LRRK2 wild-type (Q5S007 whole entry, looked up): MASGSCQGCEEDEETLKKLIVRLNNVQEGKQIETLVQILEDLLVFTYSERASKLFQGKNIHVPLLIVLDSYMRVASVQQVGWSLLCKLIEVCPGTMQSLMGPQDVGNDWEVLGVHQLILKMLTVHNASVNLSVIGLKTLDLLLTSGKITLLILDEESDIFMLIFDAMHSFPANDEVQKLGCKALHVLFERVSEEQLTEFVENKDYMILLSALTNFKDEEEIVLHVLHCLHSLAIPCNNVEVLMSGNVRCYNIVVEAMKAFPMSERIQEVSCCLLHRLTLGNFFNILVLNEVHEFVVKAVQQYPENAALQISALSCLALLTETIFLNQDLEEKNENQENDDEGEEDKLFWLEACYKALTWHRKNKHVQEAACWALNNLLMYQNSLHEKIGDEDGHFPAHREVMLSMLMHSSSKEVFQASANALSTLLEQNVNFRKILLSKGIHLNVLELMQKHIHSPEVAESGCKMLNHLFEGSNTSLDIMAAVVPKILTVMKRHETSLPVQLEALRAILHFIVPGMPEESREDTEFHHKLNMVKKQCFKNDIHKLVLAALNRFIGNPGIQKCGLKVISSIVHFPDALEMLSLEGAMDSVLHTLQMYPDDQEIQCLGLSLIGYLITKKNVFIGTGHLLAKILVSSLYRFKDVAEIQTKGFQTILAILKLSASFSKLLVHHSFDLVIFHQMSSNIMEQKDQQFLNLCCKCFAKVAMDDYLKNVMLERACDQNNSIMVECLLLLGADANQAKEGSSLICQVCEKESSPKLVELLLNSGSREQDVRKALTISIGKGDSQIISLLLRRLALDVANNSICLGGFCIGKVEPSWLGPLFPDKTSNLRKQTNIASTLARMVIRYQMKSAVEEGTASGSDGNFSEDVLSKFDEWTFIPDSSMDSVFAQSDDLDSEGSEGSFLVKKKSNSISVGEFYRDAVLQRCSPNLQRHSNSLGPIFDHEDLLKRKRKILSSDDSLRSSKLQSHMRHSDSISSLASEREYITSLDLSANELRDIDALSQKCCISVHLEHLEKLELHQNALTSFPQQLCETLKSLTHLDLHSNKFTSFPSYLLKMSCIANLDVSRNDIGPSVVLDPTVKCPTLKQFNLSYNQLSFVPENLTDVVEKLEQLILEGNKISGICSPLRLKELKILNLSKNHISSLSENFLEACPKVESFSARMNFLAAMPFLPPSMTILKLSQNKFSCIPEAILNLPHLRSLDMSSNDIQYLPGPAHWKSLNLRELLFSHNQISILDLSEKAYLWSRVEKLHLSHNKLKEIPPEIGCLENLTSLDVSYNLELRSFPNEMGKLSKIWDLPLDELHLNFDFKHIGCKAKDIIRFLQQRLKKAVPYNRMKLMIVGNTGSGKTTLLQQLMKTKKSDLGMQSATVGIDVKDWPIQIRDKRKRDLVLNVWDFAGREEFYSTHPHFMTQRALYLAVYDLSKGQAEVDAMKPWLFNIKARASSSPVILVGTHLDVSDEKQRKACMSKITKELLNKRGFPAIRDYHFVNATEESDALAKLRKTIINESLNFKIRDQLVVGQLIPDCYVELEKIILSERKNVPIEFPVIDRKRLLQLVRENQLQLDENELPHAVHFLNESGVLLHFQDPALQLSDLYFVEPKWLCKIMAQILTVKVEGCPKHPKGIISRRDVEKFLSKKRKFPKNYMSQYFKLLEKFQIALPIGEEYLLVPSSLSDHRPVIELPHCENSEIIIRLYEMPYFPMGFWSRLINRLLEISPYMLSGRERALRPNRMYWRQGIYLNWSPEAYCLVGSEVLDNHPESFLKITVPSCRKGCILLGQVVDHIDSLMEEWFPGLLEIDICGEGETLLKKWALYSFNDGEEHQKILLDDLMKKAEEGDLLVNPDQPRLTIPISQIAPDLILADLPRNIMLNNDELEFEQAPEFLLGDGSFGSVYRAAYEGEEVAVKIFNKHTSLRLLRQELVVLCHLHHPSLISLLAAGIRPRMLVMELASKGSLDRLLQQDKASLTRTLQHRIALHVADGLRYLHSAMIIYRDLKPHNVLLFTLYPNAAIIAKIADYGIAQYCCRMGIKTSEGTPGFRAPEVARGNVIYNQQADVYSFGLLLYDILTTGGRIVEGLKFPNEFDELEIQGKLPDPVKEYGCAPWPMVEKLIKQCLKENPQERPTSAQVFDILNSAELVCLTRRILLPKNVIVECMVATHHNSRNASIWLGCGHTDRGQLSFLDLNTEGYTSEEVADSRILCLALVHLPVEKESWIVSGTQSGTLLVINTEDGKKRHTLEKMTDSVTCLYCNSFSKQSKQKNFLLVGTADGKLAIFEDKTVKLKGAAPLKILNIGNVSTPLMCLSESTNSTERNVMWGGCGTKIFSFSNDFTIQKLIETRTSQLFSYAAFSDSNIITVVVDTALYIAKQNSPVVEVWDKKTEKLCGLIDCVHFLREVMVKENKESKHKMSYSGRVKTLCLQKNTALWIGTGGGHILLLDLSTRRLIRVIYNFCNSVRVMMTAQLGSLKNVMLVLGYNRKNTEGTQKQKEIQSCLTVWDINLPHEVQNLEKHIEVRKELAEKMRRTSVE
Chain of LRRK2 mutant (G2019S) (Q5S007 whole entry G2019S, looked up): as the sequence (Q5S007 whole entry, looked up) above, with G2019S counted along it
Chain of MLK1 (P80192 whole entry, looked up): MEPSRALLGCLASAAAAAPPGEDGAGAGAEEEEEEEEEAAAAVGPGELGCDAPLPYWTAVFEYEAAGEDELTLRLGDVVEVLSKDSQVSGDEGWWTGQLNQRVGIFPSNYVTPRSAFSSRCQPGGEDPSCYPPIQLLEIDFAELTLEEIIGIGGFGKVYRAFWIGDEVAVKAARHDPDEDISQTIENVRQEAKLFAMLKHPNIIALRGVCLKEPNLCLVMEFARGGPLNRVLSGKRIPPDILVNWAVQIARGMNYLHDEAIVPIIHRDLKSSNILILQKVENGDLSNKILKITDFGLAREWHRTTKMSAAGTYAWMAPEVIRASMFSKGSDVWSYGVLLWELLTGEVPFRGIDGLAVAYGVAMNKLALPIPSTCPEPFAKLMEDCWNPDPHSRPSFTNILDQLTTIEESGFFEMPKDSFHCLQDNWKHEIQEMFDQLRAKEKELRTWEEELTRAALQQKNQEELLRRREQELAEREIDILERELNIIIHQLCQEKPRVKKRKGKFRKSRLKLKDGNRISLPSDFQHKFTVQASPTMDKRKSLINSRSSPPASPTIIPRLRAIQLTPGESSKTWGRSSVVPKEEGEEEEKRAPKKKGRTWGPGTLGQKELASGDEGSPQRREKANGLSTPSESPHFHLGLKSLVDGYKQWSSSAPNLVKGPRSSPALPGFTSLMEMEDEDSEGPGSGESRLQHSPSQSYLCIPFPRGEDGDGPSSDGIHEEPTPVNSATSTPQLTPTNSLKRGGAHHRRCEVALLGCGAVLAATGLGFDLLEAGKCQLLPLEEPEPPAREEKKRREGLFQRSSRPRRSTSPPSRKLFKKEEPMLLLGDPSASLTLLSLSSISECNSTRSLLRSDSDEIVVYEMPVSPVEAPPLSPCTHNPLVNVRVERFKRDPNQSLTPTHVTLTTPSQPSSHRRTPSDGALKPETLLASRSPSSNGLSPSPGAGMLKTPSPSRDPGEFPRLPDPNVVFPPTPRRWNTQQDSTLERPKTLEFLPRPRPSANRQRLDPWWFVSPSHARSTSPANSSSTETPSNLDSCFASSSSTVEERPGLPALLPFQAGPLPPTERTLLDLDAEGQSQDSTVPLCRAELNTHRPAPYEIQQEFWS
Chain of MLK3 (Q16584 whole entry, looked up): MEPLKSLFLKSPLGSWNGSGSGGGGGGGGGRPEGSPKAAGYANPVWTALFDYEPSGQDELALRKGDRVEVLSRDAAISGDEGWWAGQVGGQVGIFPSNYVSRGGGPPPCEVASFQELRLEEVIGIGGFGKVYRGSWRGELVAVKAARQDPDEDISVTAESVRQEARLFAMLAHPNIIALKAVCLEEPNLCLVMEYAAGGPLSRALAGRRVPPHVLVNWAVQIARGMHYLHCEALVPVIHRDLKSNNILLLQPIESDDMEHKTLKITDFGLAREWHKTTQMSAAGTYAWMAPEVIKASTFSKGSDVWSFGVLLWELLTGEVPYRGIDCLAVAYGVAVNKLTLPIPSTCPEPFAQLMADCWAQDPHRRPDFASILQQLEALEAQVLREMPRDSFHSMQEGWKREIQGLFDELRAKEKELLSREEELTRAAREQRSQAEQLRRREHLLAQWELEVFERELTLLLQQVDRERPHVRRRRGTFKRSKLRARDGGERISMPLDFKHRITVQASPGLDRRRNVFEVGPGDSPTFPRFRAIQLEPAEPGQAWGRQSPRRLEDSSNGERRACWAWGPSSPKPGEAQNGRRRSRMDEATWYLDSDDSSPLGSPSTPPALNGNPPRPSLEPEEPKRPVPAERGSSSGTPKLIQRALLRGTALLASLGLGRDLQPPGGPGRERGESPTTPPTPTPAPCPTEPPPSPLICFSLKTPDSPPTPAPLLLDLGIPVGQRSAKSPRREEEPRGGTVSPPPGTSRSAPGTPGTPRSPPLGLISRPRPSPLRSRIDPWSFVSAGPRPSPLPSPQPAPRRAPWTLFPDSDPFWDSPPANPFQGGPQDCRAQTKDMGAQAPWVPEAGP

The IC50 is the point on the concentration scale where inhibition reaches its midpoint. For `CCS(=O)(=O)N1CC[C@H](Nc2c(Br)cnc3[nH]c(-c4cc(C)n(-c5cccc(S(=O)(=O)N6CCOCC6)c5)c4C)nc23)C1` [Example 11, (S)-6-bromo-2-(2,5-dimethyl-1-(3-(morpholinosulfonyl)phenyl)-1H-pyrrol-3-yl)-N-(1-(ethylsulfonyl)pyrrolidine-3-yl)-3H-imidazo[4,5-b]pyridine-7-amine], the inhibition at 10 µM was above 50% in assay [1] (72 h); 10 to 50% in assay [2] (U-937, 72 h); above 50% in assay [3] (setting [6]). In addition, the remaining binding at 0.1 µM on LRRK2 mutant (G2019S) is 7.9%; on LRRK2 wild-type, 28%. The values for the remaining binding at 0.5 µM on LRRK2 mutant (G2019S) and at LRRK2 wild-type were 1.7% and 6.9%, respectively. Moreover, the IC50 at MLK3 amounted to 7 nM. Also, the “Relative degree of expression inhibition (%) TGF-β1” value with TGF-β1 came to 99.40%. Also, the “Relative degree of expression inhibition (%) Fibronectin-1” value with Fibronectin-1 was determined as 86.85%. Further, the “Relative degree of expression inhibition (%) α-SMA” value in the assay on α-SMA is on record as 24.73%.

Turning to `CCS(=O)(=O)N1CC[C@H](Nc2c(Br)cnc3[nH]c(-c4cc(C)n(-c5cccc(C(=O)O)c5)c4C)nc23)C1` [Example 58, (S)-3-(3-(6-bromo-7-((1-(ethylsulfonyl)pyrrolidine-3-yl)amino)-3H-imidazo[4,5-b]pyridine-2-yl)-2,5-dimethyl-1H-pyrrol-1-yl)benzoic acid], the inhibition at 10 µM in assay [1] (10 μM, 72 hours, CCK-8) is below 10%; in [4] (setting [7]), below 10%; in assay [5] (setting [8]), below 10%; in assay [2] (setting [9]) it was below 10%; in [3] (setting [10]), below 10%. The remaining binding at 0.1 µM on LRRK2 mutant (G2019S) is 1.4%; at LRRK2 wild-type, 5%. Also, the remaining binding at 0.5 µM at LRRK2 mutant (G2019S) was 0.2%; at LRRK2 wild-type, 0.7%. Besides, on MLK3, the IC50 stood at 53 nM. Also, in the assay on TGF-β1, the “Relative degree of expression inhibition (%) TGF-β1” value stood at 48.93%. Moreover, the “Relative degree of expression inhibition (%) Fibronectin-1” value in the assay on Fibronectin-1 turned out to be 69.83%. Also, the “Relative degree of expression inhibition (%) α-SMA” value in the assay on α-SMA is recorded as 66.53%.

On to `CCS(=O)(=O)N1CC[C@H](Nc2c(Br)cnc3nc(-c4cc(C)n(-c5cccc(C(=O)N6CCN(C)CC6)c5C)c4C)[nH]c23)C1` [Example 81, (3-(3-(6-bromo-7-(((S)-1-(ethylsulfonyl)pyrrolidine-3-yl)amino)-1H-imidazo[4,5-b]pyridine-2-yl)-2,5-dimethyl-1H-pyrrol-1-yl)-2-methylphenyl) (4-methylpiperazine-1-yl) methanone], for which the inhibition at 10 µM is above 50% in assay [1] (72 h); 10 to 50% in assay [4] (72 h, read-out: Cancer cell proliferation inhibitory activity Hs746T); 10 to 50% in assay [5] (A549, 72 h, read-out: Cancer cell proliferation inhibitory activity A549); above 50% in assay [2] (U-937, 72 h); above 50% in [3] (setting [6]). Also, the values for the IC50 against MLK1 and on MLK3 were 14 nM and 9 nM, respectively. Also, the remaining binding at 0.1 µM at LRRK2 mutant (G2019S) came out at 0%; at LRRK2 wild-type, 0.7%. Further, the remaining binding at 0.5 µM at LRRK2 mutant (G2019S) is 0.1%; at LRRK2 wild-type it was 0.6%. Moreover, the “Relative degree of expression inhibition (%) TGF-β1” value in the assay with TGF-β1 is 44.28%. For the same molecule, the “Relative degree of expression inhibition (%) Fibronectin-1” value with Fibronectin-1 came out at 61.05%. In the assay on α-SMA, the “Relative degree of expression inhibition (%) α-SMA” value came to 61.69%.

Regarding `Cc1ccc(NC(=O)CN2CCOCC2)cc1-n1c(C)cc(-c2nc3ncc(Br)c(Nc4cccc(S(N)(=O)=O)c4)c3[nH]2)c1C` [Example 88, N-(3-(3-(6-bromo-7-((3-sulfamoylphenyl)amino)-1H-imidazo[4,5-b]pyridine-2-yl)-2,5-dimethyl-1H-pyrrol-1-yl)-4-methylphenyl)-2-morpholinoacetamide], the inhibition at 10 µM in assay [1] (10 μM, 72 hours, CCK-8) is above 50%; in assay [4] (setting [7]), above 50%; in assay [5] (setting [8]) it was 10 to 50%; in assay [2] (setting [9]) it was 10 to 50%; in assay [3] (setting [10]), above 50%. Also, the IC50 at MLK1 was determined as 82 nM; at MLK3, 52 nM. Moreover, the remaining binding at 0.1 µM at LRRK2 mutant (G2019S) turned out to be 57%; on LRRK2 wild-type it was 73%. Further, the remaining binding at 0.5 µM at LRRK2 mutant (G2019S) is 19%; at LRRK2 wild-type it was 46%. Besides, the “Relative degree of expression inhibition (%) TGF-β1” value with TGF-β1 turned out to be 56.45%. Also, the “Relative degree of expression inhibition (%) Fibronectin-1” value in the assay on Fibronectin-1 is recorded as 86.78%. For the same molecule, the “Relative degree of expression inhibition (%) α-SMA” value with α-SMA worked out at 74.86%.
